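In this assay, cells in 96-well plates receive the compound at five concentrations for 48 hours. Endpoints are linearly interpolated between the surrounding concentrations. Abbreviation: GI50, concentration required for 50% inhibition of growth.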 Activity calls are given as the source filed them. Rule as the data show it: active = GI50 up to about 1.1 µM and inactive = higher.
What was measured:
Assay in all cases: DTP human tumour cell line panel, 48 h
[1] = test system: DU-145
[2] = test system: M14
[3] = test system: A498
[4] = test system: SK-MEL-28
[5] = test system: SK-MEL-2
[6] = test system: UO-31
[7] = test system: SF-539
[8] = test system: NCI/ADR-RES
[9] = test system: SW-620
[10] = test system: K562
[11] = test system: KM12
[12] = test system: MDA-MB-231
[13] = test system: MDA-MB-435
[14] = test system: CCRF-CEM
[15] = test system: T47D
[16] = test system: SN12C
[17] = test system: MDA-N
[18] = test system: TK-10
[19] = test system: UACC-62
[20] = test system: OVCAR-5

| Compound | GI50 [1] | GI50 [2] | GI50 [3] | GI50 [4] | GI50 [5] | GI50 [6] | GI50 [7] | GI50 [8] | GI50 [9] | GI50 [10] | GI50 [11] | GI50 [12] | GI50 [13] | GI50 [14] | GI50 [15] | GI50 [16] | GI50 [17] | GI50 [18] | GI50 [19] | GI50 [20] |
| --- | --- | --- | --- | --- | --- | --- | --- | --- | --- | --- | --- | --- | --- | --- | --- | --- | --- | --- | --- | --- |
| O=c1[nH]c(Nc2nc3ccccc3[nH]2)nc(O)c1Cc1ccccc1 | > 100 µM (inactive) | > 100 µM (inactive) | > 100 µM (inactive) | > 100 µM (inactive) | > 100 µM (inactive) | > 100 µM (inactive) | > 100 µM (inactive) | > 100 µM (inactive) | > 100 µM (inactive) | > 100 µM (inactive) | > 100 µM (inactive) | > 100 µM (inactive) | > 100 µM (inactive) | > 100 µM (inactive) | > 100 µM (inactive) | > 100 µM (inactive) | > 100 µM (inactive) | > 100 µM (inactive) | > 100 µM (inactive) | – |
| C=C=C(CC(CC(=C)Br)(C(=O)OC)C(=O)OC)S(=O)(=O)c1ccccc1 | 1.6 µM (inactive) | 1.96 µM (inactive) | 5.6 µM (inactive) | 1.76 µM (inactive) | 2.5 µM (inactive) | 1.71 µM (inactive) | 1.8 µM (inactive) | 2.26 µM (inactive) | 1.58 µM (inactive) | 1.48 µM (inactive) | 2.29 µM (inactive) | 1.98 µM (inactive) | 1.74 µM (inactive) | 0.497 µM (active) | 3.77 µM (inactive) | 1.53 µM (inactive) | 2.44 µM (inactive) | 1.96 µM (inactive) | 1.61 µM (inactive) | 1.65 µM (inactive) |
| CCCCc1ccc(Nc2nc(Cl)c3ncn(COCCOC(C)=O)c3n2)cc1 | 16 µM (inactive) | 18 µM (inactive) | 25.5 µM (inactive) | – | 14.8 µM (inactive) | 16 µM (inactive) | 19.5 µM (inactive) | 20 µM (inactive) | 21.1 µM (inactive) | 6.04 µM (inactive) | 20.4 µM (inactive) | 15.3 µM (inactive) | 18.5 µM (inactive) | 35.6 µM (inactive) | 22.8 µM (inactive) | 21.8 µM (inactive) | 18.8 µM (inactive) | 20.3 µM (inactive) | 17.3 µM (inactive) | 17.9 µM (inactive) |
| CN(C)CCCNC(=O)c1c(O)c2ccccc2[nH]c1=O | > 100 µM (inactive) | – | > 100 µM (inactive) | > 100 µM (inactive) | > 100 µM (inactive) | 14.5 µM (inactive) | > 100 µM (inactive) | 88.5 µM (inactive) | > 100 µM (inactive) | > 100 µM (inactive) | > 100 µM (inactive) | > 100 µM (inactive) | > 100 µM (inactive) | > 100 µM (inactive) | > 100 µM (inactive) | > 100 µM (inactive) | > 100 µM (inactive) | > 100 µM (inactive) | > 100 µM (inactive) | > 100 µM (inactive) |
| COc1ccccc1/N=N/C(=N\NC(=O)c1ccc(C)cc1)c1ccc(N(CCC#N)CCC#N)cc1C | 32.6 µM (inactive) | 38.2 µM (inactive) | 51.8 µM (inactive) | > 100 µM (inactive) | 36.4 µM (inactive) | 61.9 µM (inactive) | > 100 µM (inactive) | 63 µM (inactive) | 47.5 µM (inactive) | 37.8 µM (inactive) | 41.6 µM (inactive) | 47.9 µM (inactive) | 39.5 µM (inactive) | 0.693 µM (active) | 20.8 µM (inactive) | 39.4 µM (inactive) | 45.6 µM (inactive) | > 100 µM (inactive) | – | > 100 µM (inactive) |
| N#Cc1nc(C2CCC2)oc1N | > 100 µM (inactive) | > 100 µM (inactive) | > 100 µM (inactive) | > 100 µM (inactive) | > 100 µM (inactive) | > 100 µM (inactive) | > 100 µM (inactive) | > 100 µM (inactive) | > 100 µM (inactive) | > 100 µM (inactive) | > 100 µM (inactive) | > 100 µM (inactive) | > 100 µM (inactive) | 22.8 µM (inactive) | > 100 µM (inactive) | > 100 µM (inactive) | > 100 µM (inactive) | > 100 µM (inactive) | > 100 µM (inactive) | > 100 µM (inactive) |
| CCCCC(Sc1cc(Cl)c(C)cc1S(=O)(=O)Nc1nc(N)n[nH]1)C(=O)OC (stereo not given) | > 10 µM (inactive) | > 10 µM (inactive) | > 10 µM (inactive) | > 10 µM (inactive) | > 10 µM (inactive) | – | > 10 µM (inactive) | > 10 µM (inactive) | > 10 µM (inactive) | > 10 µM (inactive) | > 10 µM (inactive) | > 10 µM (inactive) | > 10 µM (inactive) | > 10 µM (inactive) | > 10 µM (inactive) | > 10 µM (inactive) | > 10 µM (inactive) | > 10 µM (inactive) | > 10 µM (inactive) | > 10 µM (inactive) |

Reference: ChEMBL document CHEMBL1201862, “PubChem BioAssay data set” (2004)
